Reference: US20150164946A1, “Thrush Treatment Paste” (priority 2013, published 2015)

Details: copper sulfate concentration up to 70% (weight percent) in the composition, applied to horse hoofs

## O=S(=O)([O-])[O-].[Cu+2] [copper sulfate]
  harmfulness in this usage (topical hoof thrush treatment): not be harmful
